Laboratory results reported in US20170190671A1, “BIS(ARYL)CATECHOL DERIVATIVES AS HERBICIDES” (E I DU PONT DE NEMOURS AND COMPANY, priority 2014, published 2017).

Columns and labels:
[1] = test system: large (Lg) crabgrass (Digitaria sanguinalis); assay: Test C postemergence; type: in vivo; details: Digitaria sanguinalis, post-emergence, 336 h, Postemergence, scale 0 to 100, read-out: Plant response rating, Crabgrass, Large
Method in brief: (§1)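 Seeds in loam-sand soil were treated preemergence, and plants at the 1- to 4-leaf stage (2-18 cm) in peat-based medium were sprayed postemergence, with test chemicals in a non-phytotoxic solvent containing surfactant. After 13-15 days in a greenhouse, response was rated visually against controls from 0 (no effect) to 100 (complete control).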

kochia (Kochia scoparia) = assay: Test C postemergence; type: in vivo; details: Bassia scoparia, post-emergence, Postemergence, scale 0 to 100, read-out: Plant response rating, Kochia
Method in brief: as §1

[2] = test system: winter wheat (Triticum aestivum); assay: Test C postemergence; type: in vivo; details: Triticum aestivum, post-emergence, 336 h, Postemergence, scale 0 to 100, read-out: Plant response rating, Wheat
Method in brief: as §1

[3] = test system: galium (catchweed bedstraw, Galium aparine); assay: Test C postemergence; type: in vivo; details: Galium, post-emergence, 336 h, Postemergence, scale 0 to 100, read-out: Plant response rating, Galium
Method in brief: as §1

[4] = test system: morningglory (Ipomoea coccinea); assay: Test C postemergence; type: in vivo; details: Ipomoea, post-emergence, 336 h, Postemergence, scale 0 to 100, read-out: Plant response rating, Morningglory
Method in brief: as §1

[5] = test system: velvetleaf (Abutilon theophrasti); assay: Test C postemergence; type: in vivo; details: Abutilon theophrasti, post-emergence, Postemergence, scale 0 to 100, read-out: Plant response rating, Velvetleaf
Method in brief: as §1

[6] = test system: large (Lg) crabgrass (Digitaria sanguinalis); assay: Test C preemergence; type: in vivo; details: Digitaria sanguinalis, pre-emergence, 336 h, scale 0 to 100, read-out: Plant response rating, Crabgrass, Large
Method in brief: as §1

[7] = test system: barnyardgrass (Echinochloa crus-galli); assay: Test C preemergence; type: in vivo; details: Echinochloa crus-galli, pre-emergence, read-out: Plant response rating, Barnyardgrass
Method in brief: as §1

[8] = test system: lambsquarters (Chenopodium album); assay: Test C preemergence; type: in vivo; details: Chenopodium album, pre-emergence, 336 h, scale 0 to 100, read-out: Plant response rating, Lambsquarters
Method in brief: as §1

[9] = test system: ragweed (common ragweed, Ambrosia elatior); assay: Test C preemergence; type: in vivo; details: Ambrosia artemisiifolia, pre-emergence, 336 h, scale 0 to 100, read-out: Plant response rating, Ragweed
Method in brief: as §1

[10] = test system: yellow nutsedge (Cyperus esculentus); assay: Test C preemergence; type: in vivo; details: Cyperus, pre-emergence, 336 h, scale 0 to 100, read-out: Plant response rating, Nutsedge, Yellow
Method in brief: as §1

corn (Zea mays) = assay: Test C preemergence; type: in vivo; details: Zea mays, pre-emergence, 336 h, scale 0 to 100
Method in brief: as §1

[11] = test system: pigweed (Amaranthus retroflexus); assay: Test C preemergence; type: in vivo; details: Amaranthus retroflexus, pre-emergence, 336 h, scale 0 to 100, read-out: Plant response rating, Pigweed
Method in brief: as §1

soybean (Glycine max) = assay: Test C preemergence; type: in vivo; details: Glycine max, pre-emergence, scale 0 to 100, read-out: Plant response rating, Soybean
Method in brief: as §1

[12] = test system: winter wheat (Triticum aestivum); assay: Test C preemergence; type: in vivo; details: Triticum aestivum, pre-emergence, 336 h, scale 0 to 100, read-out: Plant response rating, Wheat
Method in brief: as §1

[13] = test system: galium (catchweed bedstraw, Galium aparine); assay: Test C preemergence; type: in vivo; details: Galium, pre-emergence, 336 h, scale 0 to 100, read-out: Plant response rating, Galium
Method in brief: as §1

[14] = test system: blackgrass (Alopecurus myosuroides); assay: Test C preemergence; type: in vivo; details: Alopecurus myosuroides, pre-emergence, 336 h, scale 0 to 100, read-out: Plant response rating, Blackgrass
Method in brief: as §1

[15] = test system: morningglory (Ipomoea coccinea); assay: Test C preemergence; type: in vivo; details: Ipomoea, pre-emergence, 336 h, scale 0 to 100, read-out: Plant response rating, Morningglory
Method in brief: as §1

[16] = test system: giant foxtail (Setaria faberii); assay: Test C preemergence; type: in vivo; details: Setaria faberi, pre-emergence, 336 h, scale 0 to 100, read-out: Plant response rating, Foxtail, Giant
Method in brief: as §1

[17] = test system: oilseed rape (Brassica napus); assay: Test C preemergence; type: in vivo; details: Brassica napus, pre-emergence, scale 0 to 100, read-out: Plant response rating, Oilseed Rape
Method in brief: as §1

[18] = test system: velvetleaf (Abutilon theophrasti); assay: Test C preemergence; type: in vivo; details: Abutilon theophrasti, pre-emergence, scale 0 to 100, read-out: Plant response rating, Velvetleaf
Method in brief: as §1

[19] = test system: johnsongrass (Sorghum halepense); assay: Test C preemergence; type: in vivo; details: Sorghum halepense, pre-emergence, 336 h, scale 0 to 100, read-out: Plant response rating, Johnsongrass
Method in brief: as §1

Fc1cnc(Oc2c(F)ccc(F)c2Oc2ncc(F)cn2)nc1 [Compound 29, 2,2′-[(3,6-difluoro-1,2-phenylene)bis(oxy)]bis[5-fluoropyrimidine]]
90%: pest or weed control at 31 g/ha (kochia (Kochia scoparia); 31 g ai/ha) | pest or weed control at 62 g/ha (kochia (Kochia scoparia); 62 g ai/ha) | pest or weed control at 62 g/ha ([3]; 62 g ai/ha) | pest or weed control at 62 g/ha ([4]; 62 g ai/ha) | pest or weed control at 125 g/ha ([8]; 125 g ai/ha, preemergence) | pest or weed control at 16 g/ha ([9]; Preemergence, 16 g ai/ha) | plant injury at 62 g/ha (soybean (Glycine max); 62 g ai/ha, preemergence) | plant injury at 125 g/ha (soybean (Glycine max); 125 g ai/ha, preemergence) | pest or weed control at 31 g/ha ([14]; 31 g ai/ha, preemergence) | pest or weed control at 62 g/ha ([14]; 62 g ai/ha, preemergence) | pest or weed control at 125 g/ha ([14]; 125 g ai/ha, preemergence) | pest or weed control at 62 g/ha ([18]; 62 g ai/ha, preemergence)
158 to 161 °C: melting point
95%: pest or weed control at 125 g/ha (kochia (Kochia scoparia); 125 g ai/ha) | pest or weed control at 125 g/ha ([4]; 125 g ai/ha) | pest or weed control at 31 g/ha ([6]; 31 g ai/ha, preemergence) | pest or weed control at 62 g/ha ([6]; 62 g ai/ha, preemergence) | pest or weed control at 16 g/ha ([6]; Preemergence, 16 g ai/ha) | pest or weed control at 125 g/ha ([9]; 125 g ai/ha, preemergence) | pest or weed control at 16 g/ha ([13]; Preemergence, 16 g ai/ha) | plant injury at 62 g/ha ([17]; 62 g ai/ha, preemergence) | plant injury at 125 g/ha ([17]; 125 g ai/ha, preemergence) | plant injury at 16 g/ha ([17]; Preemergence, 16 g ai/ha)
25%: pest or weed control at 16 g/ha ([7]; Preemergence, 16 g ai/ha, scale 0 to 100 (0 no effect, 100 complete control)) | Corn plant response rating (crop injury, 0 = no effect, 100 = complete kill) at 62 g/ha (corn (Zea mays); 62 g ai/ha, preemergence)
60%: plant injury at 125 g/ha ([12]; 125 g ai/ha, preemergence) | pest or weed control at 16 g/ha ([14]; Preemergence, 16 g ai/ha)
100%: pest or weed control at 125 g/ha ([7]; 125 g ai/ha, preemergence, scale 0 to 100) | pest or weed control at 31 g/ha ([11]; 31 g ai/ha, preemergence) | pest or weed control at 62 g/ha ([11]; 62 g ai/ha, preemergence) | pest or weed control at 125 g/ha ([11]; 125 g ai/ha, preemergence) | pest or weed control at 31 g/ha ([13]; 31 g ai/ha, preemergence) | pest or weed control at 62 g/ha ([13]; 62 g ai/ha, preemergence) | pest or weed control at 125 g/ha ([13]; 125 g ai/ha, preemergence)
35%: plant injury at 62 g/ha ([12]; 62 g ai/ha, preemergence)
10%: pest or weed control at 125 g/ha ([1]; 125 g ai/ha)
80%: pest or weed control at 16 g/ha (kochia (Kochia scoparia); 16 g ai/ha) | pest or weed control at 125 g/ha ([5]; 125 g ai/ha) | pest or weed control at 16 g/ha ([8]; Preemergence, 16 g ai/ha) | pest or weed control at 62 g/ha ([15]; 62 g ai/ha, preemergence) | pest or weed control at 31 g/ha ([16]; 31 g ai/ha, preemergence) | pest or weed control at 62 g/ha ([19]; 62 g ai/ha, preemergence)
70%: plant injury at 16 g/ha (soybean (Glycine max); Preemergence, 16 g ai/ha) | pest or weed control at 31 g/ha ([19]; 31 g ai/ha, preemergence)
65%: Corn plant response rating (crop injury, 0 = no effect, 100 = complete kill) at 125 g/ha (corn (Zea mays); 125 g ai/ha, preemergence)
15%: Corn plant response rating (crop injury, 0 = no effect, 100 = complete kill) at 31 g/ha (corn (Zea mays); 31 g ai/ha, preemergence)
85%: pest or weed control at 16 g/ha ([3]; 16 g ai/ha) | pest or weed control at 31 g/ha ([3]; 31 g ai/ha) | pest or weed control at 31 g/ha ([8]; 31 g ai/ha, preemergence) | pest or weed control at 62 g/ha ([8]; 62 g ai/ha, preemergence) | pest or weed control at 31 g/ha ([9]; 31 g ai/ha, preemergence) | pest or weed control at 62 g/ha ([9]; 62 g ai/ha, preemergence) | plant injury at 31 g/ha (soybean (Glycine max); 31 g ai/ha, preemergence) | pest or weed control at 125 g/ha ([15]; 125 g ai/ha, preemergence) | pest or weed control at 62 g/ha ([16]; 62 g ai/ha, preemergence) | pest or weed control at 125 g/ha ([19]; 125 g ai/ha, preemergence)
5%: pest or weed control at 62 g/ha ([1]; 62 g ai/ha) | plant injury at 31 g/ha ([12]; 31 g ai/ha, preemergence)
0%: pest or weed control at 16 g/ha ([1]; 16 g ai/ha) | pest or weed control at 31 g/ha ([1]; 31 g ai/ha) | plant injury at 31 g/ha ([2]; 31 g ai/ha) | plant injury at 62 g/ha ([2]; 62 g ai/ha) | plant injury at 125 g/ha ([2]; 125 g ai/ha) | pest or weed control at 31 g/ha ([10]; 31 g ai/ha, preemergence) | pest or weed control at 62 g/ha ([10]; 62 g ai/ha, preemergence) | pest or weed control at 16 g/ha ([10]; Preemergence, 16 g ai/ha) | Corn plant response rating (crop injury, 0 = no effect, 100 = complete kill) at 16 g/ha (corn (Zea mays); Preemergence, 16 g ai/ha) | plant injury at 16 g/ha ([12]; Preemergence, 16 g ai/ha)
75%: pest or weed control at 31 g/ha ([4]; 31 g ai/ha) | pest or weed control at 31 g/ha ([5]; 31 g ai/ha) | pest or weed control at 62 g/ha ([5]; 62 g ai/ha) | pest or weed control at 31 g/ha ([7]; 31 g ai/ha, preemergence, scale 0 to 100) | pest or weed control at 31 g/ha ([15]; 31 g ai/ha, preemergence) | pest or weed control at 16 g/ha ([16]; Preemergence, 16 g ai/ha) | pest or weed control at 16 g/ha ([18]; Preemergence, 16 g ai/ha)
40%: pest or weed control at 125 g/ha ([10]; 125 g ai/ha, preemergence)
98%: pest or weed control at 125 g/ha ([3]; 125 g ai/ha) | pest or weed control at 125 g/ha ([6]; 125 g ai/ha, preemergence) | pest or weed control at 62 g/ha ([7]; 62 g ai/ha, preemergence, scale 0 to 100) | pest or weed control at 16 g/ha ([11]; Preemergence, 16 g ai/ha) | pest or weed control at 125 g/ha ([16]; 125 g ai/ha, preemergence) | plant injury at 31 g/ha ([17]; 31 g ai/ha, preemergence) | pest or weed control at 31 g/ha ([18]; 31 g ai/ha, preemergence) | pest or weed control at 125 g/ha ([18]; 125 g ai/ha, preemergence)
55%: pest or weed control at 16 g/ha ([15]; Preemergence, 16 g ai/ha) | pest or weed control at 16 g/ha ([19]; Preemergence, 16 g ai/ha)
